According to PubChem BioAssay (NCI):
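48-hour exposure; five concentrations; linearly interpolated endpoints. Abbreviation: GI50, concentration required for 50% inhibition of growth. The concentration for full growth arrest is given as TGI.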

Legend:
Assay in all cases: inhibition of tumour cell growth, NCI panel, 48 h
HOP-92 NSCLC = test system: HOP-92 NSCLC
TK-10 renal = test system: TK-10 renal
RPMI-8226 leukemia = test system: RPMI-8226 leukemia
NCI-H460 lung = test system: NCI-H460 lung
CAKI-1 renal = test system: CAKI-1 renal
PC-3 prostate = test system: PC-3 prostate
KM12 colon = test system: KM12 colon
MOLT-4 leukemia = test system: MOLT-4 leukemia

| Structure (SMILES) | TGI (HOP-92 NSCLC) | TGI (TK-10 renal) | TGI (RPMI-8226 leukemia) | TGI (NCI-H460 lung) | TGI (CAKI-1 renal) | TGI (PC-3 prostate) | TGI (KM12 colon) | TGI (MOLT-4 leukemia) | GI50 (HOP-92 NSCLC) | GI50 (NCI-H460 lung) | GI50 (CAKI-1 renal) | GI50 (PC-3 prostate) | GI50 (KM12 colon) | GI50 (MOLT-4 leukemia) | GI50 (TK-10 renal) |
| --- | --- | --- | --- | --- | --- | --- | --- | --- | --- | --- | --- | --- | --- | --- | --- |
| CCOC(=O)c1c(CN2CCNCC2)nc2ccccc2c1-c1ccccc1 | 17.7 µM | 27.3 µM | 32.5 µM | 28.4 µM | 25.7 µM | 27.3 µM | 31.2 µM | 25 µM |  |  |  |  |  |  |  |
| C/C=C\C(CC(=O)NCCc1cn(C(=O)OCc2ccccc2)c2ccccc12)CC(=O)OC (stereo not drawn) | > 100 µM | > 100 µM | > 100 µM | > 100 µM | > 100 µM | > 100 µM | > 100 µM | > 100 µM |  |  |  |  |  |  |  |
| COC(=O)[C@H]1[C@@H](C(C)C)O[C@@H](C(C)C)O[C@H]1C(F)(F)F | > 100 µM | > 100 µM | > 100 µM | > 100 µM | > 100 µM | > 100 µM | > 100 µM | > 100 µM |  |  |  |  |  |  |  |
| Cc1cc(O)c(C(C)C)cc1SC#N | 25.3 µM | 31.8 µM | 33.7 µM | 33.4 µM | 28.2 µM | 34.4 µM | 31.4 µM | 25.3 µM |  |  |  |  |  |  |  |
| COc1nc(N(C)C)nc2c1n(C)c[n+]2C | > 100 µM | > 100 µM | > 100 µM | > 100 µM | > 100 µM | > 100 µM | > 100 µM | > 100 µM |  |  |  |  |  |  |  |
| N/N=C1/C2CN3CCN(C2)CC1(c1ccc([N+](=O)[O-])cc1)C3 |  | > 100 µM | > 100 µM |  | > 100 µM | > 100 µM | > 100 µM | > 100 µM |  |  |  |  |  |  |  |
| O=[N+]([O-])c1ccc2nc(-c3ccccn3)c(-c3ccccn3)nc2c1 | > 100 µM | > 100 µM | > 100 µM | > 100 µM | > 100 µM | > 100 µM | > 100 µM | > 100 µM |  |  |  |  |  |  |  |
| c1ccc(CCN2CCc3[nH]c4ccccc4c3C2)cc1 | 34.6 µM | 51.7 µM | > 10 µM | 30.9 µM |  |  | 34.9 µM | 70.5 µM |  |  |  |  |  |  |  |
| COc1cc2nc(-c3ccc4ccccc4c3)[nH]c(=O)c2cc1OC | > 100 µM |  | > 100 µM | > 100 µM | > 100 µM | > 100 µM | > 100 µM | > 100 µM |  |  |  |  |  |  |  |
| NC(=S)N/N=C\c1ccc(OCc2cccc(COc3ccc(/C=N/NC(N)=S)cc3)n2)cc1 | > 100 µM | > 100 µM | > 100 µM | > 100 µM | > 100 µM | > 100 µM | > 100 µM | > 100 µM |  |  |  |  |  |  |  |
| O=C(CCN1CCCC1)Nc1ccc2sc3ccccc3c(=O)c2n1 | 60.4 µM |  | 21.9 µM |  | 16.7 µM | 22.2 µM | 18.3 µM | 17.7 µM |  |  |  |  |  |  |  |
| CC1OC2=N[C@@H]1C(=O)N[C@@H](C(C)C)C1=N[C@H](C(=O)N[C@@H](C(C)C)C3=N[C@H](C(=O)N[C@@H](C(C)C)C4=N[C@H](C(=O)N[C@H]2C(C)C)C(C)O4)C(C)O3)C(C)O1 (stereo partly drawn) | > 10 µM | > 10 µM | > 10 µM | > 10 µM | > 10 µM | > 10 µM | > 10 µM | > 10 µM |  |  |  |  |  |  |  |
| Cn1nc2n(c1=O)CCCN2 | > 100 µM | > 100 µM | > 100 µM | > 100 µM |  | > 100 µM | > 100 µM |  |  |  |  |  |  |  |  |
| C/C(=C\c1ccccn1)c1ccccn1 | > 100 µM | > 100 µM | > 100 µM | > 100 µM | > 100 µM | > 100 µM | > 100 µM | > 100 µM |  |  |  |  |  |  |  |
| CC[N+](C)(CC)CCC(O)(c1ccccc1)c1ccccc1 |  | > 100 µM | > 100 µM | > 100 µM |  | > 100 µM | > 100 µM | > 100 µM |  |  |  |  |  |  |  |
| O=[N+]([O-])c1ccc(S[C@@H]2[C@H]3c4c(-c5ccccc5)[nH]c(-c5ccccc5)c4[C@@H]2C[C@H]3Cl)cc1 | > 100 µM | > 100 µM |  | 12.9 µM | > 100 µM | > 100 µM | 12.3 µM |  |  |  |  |  |  |  |  |
| CN(C)/N=C/c1cn(C)c(=O)n(C)c1=O | > 100 µM | > 100 µM | > 100 µM | > 100 µM | > 100 µM | > 100 µM | > 100 µM | > 100 µM |  |  |  |  |  |  |  |
| CC1(C)OCC(C(O)C2OC(C)(C)OC2C=O)O1 (stereo not drawn) |  | > 100 µM | > 100 µM |  |  | > 100 µM | > 100 µM | > 100 µM |  |  |  |  |  |  |  |
| Clc1ccc(N2N=C(c3cccc(Nc4ccncc4)c3)CC2c2ccc3c(c2)OCO3)cc1 (stereo not drawn) | 2.86 µM |  |  | 3.29 µM | 2.9 µM | 3.27 µM | 3.18 µM | 4.58 µM | 1.24 µM | 1.77 µM | 1.44 µM | 1.58 µM | 1.67 µM | 1.97 µM |  |
| O=C(NCc1cccc(C(F)(F)F)c1)c1cc2sccc2nc1C(F)(F)F | > 100 µM | > 100 µM | > 100 µM |  | > 100 µM | > 100 µM | > 100 µM | > 100 µM |  |  |  |  |  |  |  |

| Structure (SMILES) | TGI (HOP-92 NSCLC) | TGI (TK-10 renal) | TGI (RPMI-8226 leukemia) | TGI (NCI-H460 lung) | TGI (CAKI-1 renal) | TGI (PC-3 prostate) | TGI (KM12 colon) | TGI (MOLT-4 leukemia) | GI50 (HOP-92 NSCLC) | GI50 (NCI-H460 lung) | GI50 (CAKI-1 renal) | GI50 (PC-3 prostate) | GI50 (KM12 colon) | GI50 (MOLT-4 leukemia) | GI50 (TK-10 renal) |
| --- | --- | --- | --- | --- | --- | --- | --- | --- | --- | --- | --- | --- | --- | --- | --- |
| Cc1cc(/C=C\c2ccc3ccccc3[n+]2C)c(O)c2ncccc12 | 4.48 µM | 6.54 µM |  | 1.82 µM | 3.51 µM | 7.58 µM | 1.34 µM | > 100 µM | 0.0995 µM | 0.224 µM | 0.816 µM | 0.855 µM | 0.182 µM | 0.4 µM | 0.814 µM |
| N=c1oc2ccc3ccccc3c2cc1C(N)=O | > 100 µM |  | > 100 µM | > 100 µM | > 100 µM | > 100 µM | 63 µM | > 100 µM |  |  |  |  |  |  |  |
| C=C(CCC(C)C1CCC2C3=C(C(=O)CC21C)C1(C)CCC(=O)[C@@H](C)C1CC3=O)C(C)C(=O)O (stereo partly drawn) | 78.7 µM | > 100 µM |  | > 100 µM | 72.3 µM | > 100 µM | > 100 µM | 74.9 µM |  |  |  |  |  |  |  |
| Cc1cccc2c1[nH]c1[nH]c(=O)[nH]c(=O)c12 | > 100 µM | > 100 µM | > 100 µM |  | > 100 µM |  | > 100 µM | > 100 µM |  |  |  |  |  |  |  |
| Cc1cc(=O)n2nc(SCc3ccccc3)sc2n1 | > 100 µM | > 100 µM | > 100 µM | > 100 µM |  | > 100 µM | > 100 µM | > 100 µM |  |  |  |  |  |  |  |
| O=C1CCC2(CCO1)OCCO2 |  | > 100 µM |  | > 100 µM | > 100 µM | > 100 µM | > 100 µM | > 100 µM |  |  |  |  |  |  |  |
| N=C1N(S(=O)(=O)c2ccccc2)[C@@H](Cc2ccccc2)[C@H](c2ccccc2)C1(c1ccccc1)c1ccccc1 |  | > 100 µM | > 100 µM | > 100 µM | > 100 µM | > 100 µM | > 100 µM | > 100 µM |  |  |  |  |  |  |  |
| CC(=O)O[C@@H]1C[C@@]23C[C@@]24CC[C@H](OC2OCC(O)C(O)C2O)C(C)(C)[C@@H]4CC=C3[C@]2(C)C[C@@H]3OC4(C[C@@H](C)[C@@H]3[C@@]12C)OC(O)[C@@]1(C)O[C@@H]41 (stereo partly drawn) | > 100 µM | > 100 µM | 47.1 µM | 66.9 µM | > 100 µM | 61.1 µM | > 100 µM |  |  |  |  |  |  |  |  |
| CN(C)c1nc(N(C)C)nc(N(C)C23CC4CC(CC(C4)C2)C3)n1 | 55.8 µM |  | 74.9 µM | > 100 µM | > 100 µM | 72 µM | > 100 µM |  |  |  |  |  |  |  |  |
| N#Cc1nc(CCCCCN2C(=O)c3ccccc3C2=O)oc1N |  | > 100 µM | > 100 µM | > 100 µM | > 100 µM | > 100 µM | > 100 µM | > 100 µM |  |  |  |  |  |  |  |
| COC1OC(Cc2nnc(C)o2)C(OCc2ccccc2)C(OCc2ccccc2)C1OCc1ccccc1 (stereo not drawn) | > 100 µM |  | > 100 µM | 87 µM | > 100 µM |  | 42.3 µM | 33 µM |  |  |  |  |  |  |  |
| CCOC(=O)c1c(N2CCCC2)ncn(-c2ccccc2)c1=S | > 100 µM | > 100 µM | > 100 µM | > 100 µM |  | > 100 µM | > 100 µM | > 100 µM |  |  |  |  |  |  |  |
| CCOC(=O)C(=[N+]=[N-])C(=O)Nc1nn2nnnc2c2ccccc12 | > 100 µM |  | > 100 µM | > 100 µM | > 100 µM | > 100 µM | > 100 µM | > 100 µM |  |  |  |  |  |  |  |
| O=CC(O)C(O)C(O)C(O)C(=O)NCCCCCCCCCCCCNC(=O)C(O)C(O)C(O)C(O)C=O (stereo not drawn) | > 100 µM | > 100 µM |  | > 100 µM |  | > 100 µM | > 100 µM | > 100 µM |  |  |  |  |  |  |  |
| CC(=O)/C(=C/n1c(=S)[nH]c2ccccc21)C(=O)Nc1ccccc1C | > 100 µM | > 100 µM |  | > 100 µM | > 100 µM |  | > 100 µM | > 100 µM |  |  |  |  |  |  |  |
| Cc1ccc(C2=NOC(=O)[C@@H]3CCCC[C@@H]23)cc1 |  | > 100 µM | > 100 µM |  | > 100 µM | > 100 µM | > 100 µM | > 100 µM |  |  |  |  |  |  |  |
| CC(=O)OCC1OC(n2c3c(c(-c4cccc5ccccc45)c(C#N)c2=S)CCCC3)C(OC(C)=O)C(OC(C)=O)C1OC(C)=O (stereo not drawn) | > 100 µM | > 100 µM |  | > 100 µM |  | > 100 µM | > 100 µM | > 100 µM |  |  |  |  |  |  |  |
| CCOC(=O)C(NC(=O)N(C1=NCC(C)S1)C1CCCCC1)(OC)C(F)(F)F (stereo not drawn) | > 100 µM | > 100 µM |  | > 100 µM | > 100 µM | > 100 µM | > 100 µM | > 100 µM |  |  |  |  |  |  |  |
| COc1ccc(/C=c2\[nH]c3nc(=O)c(N4CCOCC4)c(N)n3c2=O)cc1 | > 100 µM | > 100 µM | > 100 µM |  | > 100 µM |  | > 100 µM | > 100 µM |  |  |  |  |  |  |  |
